Experimental data as given in ChEMBL document CHEMBL3885881, “DrugMatrix”.

Species: Rattus norvegicus
Assay: DrugMatrix - Regimen: Daily Repeat
Assay type: toxicity, organism-based, Sprague-Dawley
Design: regimen Daily Repeat, gender Male, age 6-8 weeks
Settings: in vivo, po, route oral GAVAGE, vehicle .5 % CMC; for ABSOLUTE BASOPHIL / ABSOLUTE EOSINOPHIL / ABSOLUTE LYMPHOCYTE / ABSOLUTE MONOCYTE / ABSOLUTE SEGMENTED NEUTROPHIL / BASOPHIL / EOSINOPHIL / ERYTHROCYTE COUNT / HEMATOCRIT / HEMOGLOBIN / LEUKOCYTE COUNT / LYMPHOCYTE / MEAN CORPUSCULAR HEMOGLOBIN / MEAN CORPUSCULAR HEMOGLOBIN CONCENTRATION / MEAN CORPUSCULAR VOLUME / MONOCYTE / NEUTROPHIL / NUCLEATED RED BLOOD CELLS / PLATELET COUNT: tissue Blood; for ALANINE AMINOTRANSFERASE / ALBUMIN / ALKALINE PHOSPHATASE / ASPARTATE AMINOTRANSFERASE / BLOOD UREA NITROGEN / CARBON DIOXIDE / CHLORIDE / CHOLESTEROL / CREATINE PHOSPHOKINASE / CREATININE / GLUCOSE / LACTATE DEHYDROGENASE / LIPASE / PHOSPHORUS / POTASSIUM / SODIUM / TOTAL BILIRUBIN / TOTAL PROTEIN / URIC ACID: tissue Plasma
[1] = 385.5 mg/kg, 120 h, dose level Low, time 5 day
[2] = 3855 mg/kg, 72 h, dose level High, time 3 day
[3] = 3855 mg/kg, 120 h, dose level High, time 5 day

With `Cn1c(=O)c2c(ncn2CC(O)CO)n(C)c1=O` (centres undefined) [DYPHYLLINE] the “ABSOLUTE BASOPHIL” value [1] was 0 CELLS/uL, the “ABSOLUTE EOSINOPHIL” value [1] was 0 CELLS/uL and the “ABSOLUTE LYMPHOCYTE” value [1] was 14849.33 CELLS/uL. The “ABSOLUTE MONOCYTE” value [1] was 268.33 CELLS/uL, the “ABSOLUTE SEGMENTED NEUTROPHIL” value [1] was 1249 CELLS/uL and the BASOPHIL [1] was 0%. The EOSINOPHIL [1] was 0%, the “ERYTHROCYTE COUNT” value [1] was 5.2 x10E6/uL and the HEMATOCRIT [1] was 34.47%. For the same compound, the HEMOGLOBIN [1] was 13.7 G/DL, the “LEUKOCYTE COUNT” value [1] was 16.37 x10E3/uL and the LYMPHOCYTE [1] was 90.67%. The “MEAN CORPUSCULAR HEMOGLOBIN” value [1] was 26.37 pg, the “MEAN CORPUSCULAR HEMOGLOBIN CONCENTRATION” value [1] was 39.77 G/DL and the “MEAN CORPUSCULAR VOLUME” value [1] was 66.3 fL. The MONOCYTE [1] was 1.67%, the NEUTROPHIL [1] was 7.67% and the “NUCLEATED RED BLOOD CELLS” value [1] was 0.33 /100WBC. For the same compound, the “PLATELET COUNT” value [1] was 1326 x10E3/uL, the “ALANINE AMINOTRANSFERASE” value [1] was 46.67 u/L and the ALBUMIN [1] was 4.3 G/DL. For the same compound, the “ALKALINE PHOSPHATASE” value [1] was 287 u/L, the “ASPARTATE AMINOTRANSFERASE” value [1] was 70.67 u/L and the “BLOOD UREA NITROGEN” value [1] was 18.67 mg/dL. The “CARBON DIOXIDE” value [1] was 25.33 mmol/L, the CHLORIDE [1] was 102.67 MEQ/L and the CHOLESTEROL [1] was 75.33 mg/dL. For the same compound, the “CREATINE PHOSPHOKINASE” value [1] was 172.67 u/L, the CREATININE [1] was 0.18 mg/dL and the GLUCOSE [1] was 155 mg/dL. The “LACTATE DEHYDROGENASE” value [1] was 103.33 u/L, the LIPASE [1] was 10 u/L and the PHOSPHORUS [1] was 13.33 mg/dL. For the same compound, the POTASSIUM [1] was 6.61 MEQ/L, the SODIUM [1] was 146.27 MEQ/L and the “TOTAL BILIRUBIN” value [1] was 0.2 mg/dL. For the same compound, the “TOTAL PROTEIN” value [1] was 5.93 G/DL, the “URIC ACID” value [1] was 1.33 mg/dL and the “ABSOLUTE BASOPHIL” value [2] was 0 CELLS/uL. The “ABSOLUTE EOSINOPHIL” value [2] was 0 CELLS/uL, the “ABSOLUTE LYMPHOCYTE” value [2] was 16214.67 CELLS/uL and the “ABSOLUTE MONOCYTE” value [2] was 399.33 CELLS/uL. The “ABSOLUTE SEGMENTED NEUTROPHIL” value [2] was 2086 CELLS/uL, the BASOPHIL [2] was 0% and the EOSINOPHIL [2] was 0%. For the same compound, the “ERYTHROCYTE COUNT” value [2] was 5.33 x10E6/uL, the HEMATOCRIT [2] was 33.37% and the HEMOGLOBIN [2] was 13.57 G/DL. For the same compound, the “LEUKOCYTE COUNT” value [2] was 18.7 x10E3/uL, the LYMPHOCYTE [2] was 87% and the “MEAN CORPUSCULAR HEMOGLOBIN” value [2] was 25.5 pg. For the same compound, the “MEAN CORPUSCULAR HEMOGLOBIN CONCENTRATION” value [2] was 40.67 G/DL, the “MEAN CORPUSCULAR VOLUME” value [2] was 62.63 fL and the MONOCYTE [2] was 2%. The NEUTROPHIL [2] was 11%, the “NUCLEATED RED BLOOD CELLS” value [2] was 0 /100WBC and the “PLATELET COUNT” value [2] was 1235.67 x10E3/uL. The “ALANINE AMINOTRANSFERASE” value [2] was 63.67 u/L, the ALBUMIN [2] was 4.37 G/DL and the “ALKALINE PHOSPHATASE” value [2] was 376 u/L. The “ASPARTATE AMINOTRANSFERASE” value [2] was 102 u/L, the “BLOOD UREA NITROGEN” value [2] was 14 mg/dL and the “CARBON DIOXIDE” value [2] was 25.67 mmol/L. For the same compound, the CHLORIDE [2] was 103.33 MEQ/L, the CHOLESTEROL [2] was 72 mg/dL and the “CREATINE PHOSPHOKINASE” value [2] was 224.33 u/L. For the same compound, the CREATININE [2] was 0.18 mg/dL, the GLUCOSE [2] was 169.33 mg/dL and the “LACTATE DEHYDROGENASE” value [2] was 157.67 u/L. For the same compound, the LIPASE [2] was 10 u/L, the PHOSPHORUS [2] was 11.3 mg/dL and the POTASSIUM [2] was 6.13 MEQ/L. For the same compound, the SODIUM [2] was 145.4 MEQ/L, the “TOTAL BILIRUBIN” value [2] was 0.17 mg/dL and the “TOTAL PROTEIN” value [2] was 5.77 G/DL. The “URIC ACID” value [2] was 1.27 mg/dL, the “ABSOLUTE BASOPHIL” value [3] was 0 CELLS/uL and the “ABSOLUTE EOSINOPHIL” value [3] was 169.33 CELLS/uL. The “ABSOLUTE LYMPHOCYTE” value [3] was 15268 CELLS/uL, the “ABSOLUTE MONOCYTE” value [3] was 115.33 CELLS/uL and the “ABSOLUTE SEGMENTED NEUTROPHIL” value [3] was 1780.67 CELLS/uL. For the same compound, the BASOPHIL [3] was 0%, the EOSINOPHIL [3] was 1% and the “ERYTHROCYTE COUNT” value [3] was 5.34 x10E6/uL. For the same compound, the HEMATOCRIT [3] was 34.57%, the HEMOGLOBIN [3] was 13.7 G/DL and the “LEUKOCYTE COUNT” value [3] was 17.33 x10E3/uL. The LYMPHOCYTE [3] was 88%, the “MEAN CORPUSCULAR HEMOGLOBIN” value [3] was 25.67 pg and the “MEAN CORPUSCULAR HEMOGLOBIN CONCENTRATION” value [3] was 39.63 G/DL. The “MEAN CORPUSCULAR VOLUME” value [3] was 64.77 fL, the MONOCYTE [3] was 0.67% and the NEUTROPHIL [3] was 10.33%. The “NUCLEATED RED BLOOD CELLS” value [3] was 0.33 /100WBC, the “PLATELET COUNT” value [3] was 1356 x10E3/uL and the “ALANINE AMINOTRANSFERASE” value [3] was 67.33 u/L. For the same compound, the ALBUMIN [3] was 4.23 G/DL, the “ALKALINE PHOSPHATASE” value [3] was 246 u/L and the “ASPARTATE AMINOTRANSFERASE” value [3] was 85.67 u/L. For the same compound, the “BLOOD UREA NITROGEN” value [3] was 17 mg/dL, the “CARBON DIOXIDE” value [3] was 26.33 mmol/L and the CHLORIDE [3] was 102.33 MEQ/L. The CHOLESTEROL [3] was 58.67 mg/dL, the “CREATINE PHOSPHOKINASE” value [3] was 184.33 u/L and the CREATININE [3] was 0.16 mg/dL. For the same compound, the GLUCOSE [3] was 150.67 mg/dL, the “LACTATE DEHYDROGENASE” value [3] was 98.67 u/L and the LIPASE [3] was 10 u/L. The PHOSPHORUS [3] was 11.47 mg/dL, the POTASSIUM [3] was 6.42 MEQ/L and the SODIUM [3] was 144.77 MEQ/L. The “TOTAL BILIRUBIN” value [3] was 0.2 mg/dL, the “TOTAL PROTEIN” value [3] was 5.77 G/DL and the “URIC ACID” value [3] was 1 mg/dL.
